In ChEMBL document CHEMBL1201862, “PubChem BioAssay data set” (2004):
Calls of active or inactive are those of the source.

Key:
[1] = biological target: T1, Mannose-6-phosphate isomerase (Homo sapiens, UniProt P34949); assay: inhibitors of human PMI, primary screen, biochemical, fluorescence intensity, coupled assay (AID 1209)
T1 sequence (P34949 whole entry): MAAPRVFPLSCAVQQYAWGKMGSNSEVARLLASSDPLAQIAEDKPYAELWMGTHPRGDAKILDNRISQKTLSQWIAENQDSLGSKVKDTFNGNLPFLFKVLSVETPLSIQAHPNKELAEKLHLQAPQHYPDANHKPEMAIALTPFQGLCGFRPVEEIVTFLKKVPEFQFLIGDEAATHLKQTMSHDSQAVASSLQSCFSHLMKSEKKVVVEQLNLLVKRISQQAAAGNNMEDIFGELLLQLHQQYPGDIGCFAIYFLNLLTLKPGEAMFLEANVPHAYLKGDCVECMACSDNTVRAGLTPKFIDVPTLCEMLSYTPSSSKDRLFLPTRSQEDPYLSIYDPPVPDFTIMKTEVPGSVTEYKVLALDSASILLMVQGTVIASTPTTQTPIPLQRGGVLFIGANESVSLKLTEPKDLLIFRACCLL

Protein RecA = biological target: T2, Protein RecA (Mycobacterium tuberculosis, UniProt P9WHJ3); assay: Fluorescence Cell-Free Homogeneous Dose Retest to Identify Inhibitors of RecA-Intein Splicing Activity. [Related pubchem assays (depositor defined):AID2097, AID2223, AID489010, AID492950]; format: functional
T2 sequence (P9WHJ3 whole entry): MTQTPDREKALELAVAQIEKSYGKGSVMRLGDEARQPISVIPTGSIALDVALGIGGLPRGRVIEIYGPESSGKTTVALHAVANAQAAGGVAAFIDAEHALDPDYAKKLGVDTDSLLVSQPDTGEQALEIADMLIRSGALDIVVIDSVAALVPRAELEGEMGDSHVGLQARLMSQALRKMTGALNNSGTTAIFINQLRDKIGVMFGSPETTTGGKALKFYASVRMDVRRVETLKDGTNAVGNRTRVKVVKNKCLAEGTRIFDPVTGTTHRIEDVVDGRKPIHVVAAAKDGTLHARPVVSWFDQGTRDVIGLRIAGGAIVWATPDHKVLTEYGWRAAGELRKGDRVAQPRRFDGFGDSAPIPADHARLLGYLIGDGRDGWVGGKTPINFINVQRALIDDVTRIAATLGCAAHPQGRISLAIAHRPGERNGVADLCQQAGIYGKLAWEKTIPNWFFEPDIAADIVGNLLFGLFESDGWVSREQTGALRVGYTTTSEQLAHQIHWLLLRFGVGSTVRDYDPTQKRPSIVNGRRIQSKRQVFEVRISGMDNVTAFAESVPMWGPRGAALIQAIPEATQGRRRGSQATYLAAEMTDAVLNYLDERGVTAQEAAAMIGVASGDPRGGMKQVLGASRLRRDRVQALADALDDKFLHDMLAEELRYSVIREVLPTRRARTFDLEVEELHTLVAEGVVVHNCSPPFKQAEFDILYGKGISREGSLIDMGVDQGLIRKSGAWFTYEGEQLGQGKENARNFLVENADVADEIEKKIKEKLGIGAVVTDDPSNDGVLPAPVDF

[2] = biological target: T3, Replicative DNA helicase DnaB (Mycobacterium tuberculosis, UniProt P9WMR3); assay: DnaB intein splicing inhibitors, dose response, biochemical, cell-free fluorescence (AID 449749); format: functional
T3 sequence (P9WMR3 whole entry): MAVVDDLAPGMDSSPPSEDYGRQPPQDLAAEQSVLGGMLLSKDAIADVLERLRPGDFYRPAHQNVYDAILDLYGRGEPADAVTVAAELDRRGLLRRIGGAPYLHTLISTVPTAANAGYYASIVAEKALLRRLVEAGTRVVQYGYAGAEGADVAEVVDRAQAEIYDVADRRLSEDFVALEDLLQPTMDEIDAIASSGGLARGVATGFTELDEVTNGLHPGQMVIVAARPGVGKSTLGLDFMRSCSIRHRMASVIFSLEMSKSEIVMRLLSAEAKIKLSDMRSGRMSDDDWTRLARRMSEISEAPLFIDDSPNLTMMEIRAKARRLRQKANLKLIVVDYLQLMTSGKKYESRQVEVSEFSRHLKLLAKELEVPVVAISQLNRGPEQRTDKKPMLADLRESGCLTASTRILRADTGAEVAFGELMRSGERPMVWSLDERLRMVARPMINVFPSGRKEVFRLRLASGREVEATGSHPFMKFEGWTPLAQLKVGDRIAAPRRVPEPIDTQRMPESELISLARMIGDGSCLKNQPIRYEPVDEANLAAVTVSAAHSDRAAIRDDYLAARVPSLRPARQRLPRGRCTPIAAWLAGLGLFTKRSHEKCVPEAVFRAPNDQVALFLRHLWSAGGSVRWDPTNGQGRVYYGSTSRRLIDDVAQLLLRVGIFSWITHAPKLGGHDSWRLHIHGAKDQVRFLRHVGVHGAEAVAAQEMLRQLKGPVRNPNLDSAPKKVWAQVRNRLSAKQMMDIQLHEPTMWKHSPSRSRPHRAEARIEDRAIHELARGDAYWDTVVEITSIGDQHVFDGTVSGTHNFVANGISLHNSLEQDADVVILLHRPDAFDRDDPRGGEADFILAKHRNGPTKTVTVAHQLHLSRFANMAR

Genome polyprotein = Genome polyprotein (dengue virus type 2, UniProt P29990); assay: Dengue-2 NS5 methyltransferase inhibitors, primary screen, biochemical, confirmation dose response (AID 588689); format: functional
[3] = biological target: Peroxisome proliferator-activated receptor gamma/Nuclear receptor coactivator 3 (Homo sapiens, UniProt P37231); format: functional;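 further: agonist potency for raising coactivator recruitment to the receptor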
Peroxisome proliferator-activated receptor gamma/Nuclear receptor coactivator 3, sequence (P37231 whole entry): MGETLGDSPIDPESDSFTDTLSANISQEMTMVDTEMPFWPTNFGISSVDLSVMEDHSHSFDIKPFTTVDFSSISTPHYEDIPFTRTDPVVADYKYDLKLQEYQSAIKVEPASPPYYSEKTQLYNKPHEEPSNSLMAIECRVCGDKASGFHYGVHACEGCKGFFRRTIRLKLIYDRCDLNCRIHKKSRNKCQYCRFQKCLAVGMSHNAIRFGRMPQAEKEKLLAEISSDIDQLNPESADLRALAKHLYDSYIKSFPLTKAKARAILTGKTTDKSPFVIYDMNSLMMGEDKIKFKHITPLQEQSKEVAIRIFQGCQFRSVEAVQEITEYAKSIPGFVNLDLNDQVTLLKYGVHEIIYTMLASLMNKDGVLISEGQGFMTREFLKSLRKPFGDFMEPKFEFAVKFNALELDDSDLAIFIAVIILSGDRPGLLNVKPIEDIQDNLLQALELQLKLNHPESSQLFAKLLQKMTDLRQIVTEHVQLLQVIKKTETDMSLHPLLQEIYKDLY
Peroxisome proliferator-activated receptor gamma/Nuclear receptor coactivator 3, sequence (Q9Y6Q9 whole entry, further chain): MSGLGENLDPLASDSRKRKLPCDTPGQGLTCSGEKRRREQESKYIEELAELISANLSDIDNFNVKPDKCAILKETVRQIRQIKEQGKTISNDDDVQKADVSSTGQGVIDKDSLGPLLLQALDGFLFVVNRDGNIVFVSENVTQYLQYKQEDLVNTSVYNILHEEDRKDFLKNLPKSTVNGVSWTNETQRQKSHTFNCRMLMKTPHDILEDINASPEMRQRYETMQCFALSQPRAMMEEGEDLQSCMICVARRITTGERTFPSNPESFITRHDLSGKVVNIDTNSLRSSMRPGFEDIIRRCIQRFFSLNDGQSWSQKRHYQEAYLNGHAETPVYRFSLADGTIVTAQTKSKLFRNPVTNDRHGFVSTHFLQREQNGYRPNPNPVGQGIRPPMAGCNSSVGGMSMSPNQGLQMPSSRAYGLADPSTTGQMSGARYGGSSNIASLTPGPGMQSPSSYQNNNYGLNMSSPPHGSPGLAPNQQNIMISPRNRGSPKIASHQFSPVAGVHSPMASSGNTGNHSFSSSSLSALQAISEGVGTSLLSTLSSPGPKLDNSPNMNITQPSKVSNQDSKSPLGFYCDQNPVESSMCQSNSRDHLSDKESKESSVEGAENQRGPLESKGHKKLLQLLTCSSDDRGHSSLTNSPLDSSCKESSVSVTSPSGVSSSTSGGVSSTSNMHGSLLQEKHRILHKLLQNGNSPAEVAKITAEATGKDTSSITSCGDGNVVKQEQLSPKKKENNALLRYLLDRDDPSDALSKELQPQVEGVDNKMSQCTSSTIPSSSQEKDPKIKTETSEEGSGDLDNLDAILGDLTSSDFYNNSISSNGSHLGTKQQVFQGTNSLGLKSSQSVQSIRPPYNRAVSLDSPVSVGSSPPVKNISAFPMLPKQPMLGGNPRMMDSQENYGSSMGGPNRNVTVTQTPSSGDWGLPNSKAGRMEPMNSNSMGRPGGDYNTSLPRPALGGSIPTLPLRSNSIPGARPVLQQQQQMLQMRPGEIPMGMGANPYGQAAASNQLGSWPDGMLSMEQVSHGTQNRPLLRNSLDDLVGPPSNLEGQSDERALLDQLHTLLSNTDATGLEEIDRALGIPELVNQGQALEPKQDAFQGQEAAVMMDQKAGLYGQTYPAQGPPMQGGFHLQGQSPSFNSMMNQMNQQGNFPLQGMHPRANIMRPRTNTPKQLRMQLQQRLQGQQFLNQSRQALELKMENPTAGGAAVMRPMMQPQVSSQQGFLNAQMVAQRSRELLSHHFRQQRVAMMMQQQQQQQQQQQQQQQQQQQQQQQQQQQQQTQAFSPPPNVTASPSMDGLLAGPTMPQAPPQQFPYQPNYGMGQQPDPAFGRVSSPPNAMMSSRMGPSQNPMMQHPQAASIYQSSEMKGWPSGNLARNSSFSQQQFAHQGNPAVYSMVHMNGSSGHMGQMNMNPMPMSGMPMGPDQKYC

[4] = biological target: Peroxisome proliferator-activated receptor gamma/Nuclear receptor coactivator 1 (Homo sapiens, UniProt P37231); format: functional;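 further: agonist potency as compounds enhance coactivator SRC-1 recruitment to PPARgamma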
Peroxisome proliferator-activated receptor gamma/Nuclear receptor coactivator 1, sequence (P37231 whole entry): as the sequence (P37231 whole entry) above
Peroxisome proliferator-activated receptor gamma/Nuclear receptor coactivator 1, sequence (Q15788 whole entry, further chain): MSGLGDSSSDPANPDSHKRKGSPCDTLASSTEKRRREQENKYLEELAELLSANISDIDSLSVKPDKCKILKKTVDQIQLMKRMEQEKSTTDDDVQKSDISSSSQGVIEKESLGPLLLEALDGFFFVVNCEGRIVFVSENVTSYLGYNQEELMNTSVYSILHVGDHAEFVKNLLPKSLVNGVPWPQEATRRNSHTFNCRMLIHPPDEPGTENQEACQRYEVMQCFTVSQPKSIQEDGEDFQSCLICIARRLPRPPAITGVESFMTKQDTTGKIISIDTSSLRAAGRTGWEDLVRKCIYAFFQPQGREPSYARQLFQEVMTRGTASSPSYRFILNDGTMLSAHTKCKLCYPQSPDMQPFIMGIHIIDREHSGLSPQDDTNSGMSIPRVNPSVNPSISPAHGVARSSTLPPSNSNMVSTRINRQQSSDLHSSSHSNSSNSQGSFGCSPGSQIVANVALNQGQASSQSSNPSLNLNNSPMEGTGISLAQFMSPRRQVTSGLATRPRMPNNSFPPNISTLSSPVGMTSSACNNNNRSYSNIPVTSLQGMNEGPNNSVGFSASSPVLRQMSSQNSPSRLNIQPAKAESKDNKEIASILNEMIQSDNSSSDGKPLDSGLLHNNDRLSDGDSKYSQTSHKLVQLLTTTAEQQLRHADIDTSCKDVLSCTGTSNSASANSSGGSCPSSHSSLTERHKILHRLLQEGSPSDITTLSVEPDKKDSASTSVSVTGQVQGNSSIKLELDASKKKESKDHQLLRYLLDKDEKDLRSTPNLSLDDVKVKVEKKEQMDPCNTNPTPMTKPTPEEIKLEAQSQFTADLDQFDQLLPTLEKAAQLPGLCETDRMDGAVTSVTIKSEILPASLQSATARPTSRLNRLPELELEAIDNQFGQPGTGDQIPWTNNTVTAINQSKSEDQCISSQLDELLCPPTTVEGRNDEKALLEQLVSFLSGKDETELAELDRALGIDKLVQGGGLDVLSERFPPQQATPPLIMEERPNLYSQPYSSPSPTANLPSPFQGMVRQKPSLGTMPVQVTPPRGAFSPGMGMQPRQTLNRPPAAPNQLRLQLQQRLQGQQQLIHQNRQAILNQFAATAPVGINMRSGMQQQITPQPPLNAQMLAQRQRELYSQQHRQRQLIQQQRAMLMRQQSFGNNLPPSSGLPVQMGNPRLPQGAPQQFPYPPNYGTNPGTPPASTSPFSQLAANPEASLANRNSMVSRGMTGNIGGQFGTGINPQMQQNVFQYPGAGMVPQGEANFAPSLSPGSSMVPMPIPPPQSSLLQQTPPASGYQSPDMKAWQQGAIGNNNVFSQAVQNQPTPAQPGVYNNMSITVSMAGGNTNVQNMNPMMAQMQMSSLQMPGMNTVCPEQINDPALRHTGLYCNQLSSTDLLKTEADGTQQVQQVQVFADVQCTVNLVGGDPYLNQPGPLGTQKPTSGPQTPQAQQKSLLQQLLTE

[5] = biological target: Peroxisome proliferator-activated receptor gamma/Nuclear receptor coactivator 2 (Homo sapiens, UniProt P37231); format: functional;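 further: agonist potency for raising coactivator recruitment to the receptor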
[6] = A Cell Based Secondary Assay To Explore Cytotoxicity of Compounds that Sensitize Mycobacterium Tuberculosis to Beta-Lactam Antibiotics.; format: functional
Estrogen receptor beta [7] = biological target: T4, Estrogen receptor beta (Homo sapiens, UniProt Q92731);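 further: recombinant ER-beta bound to coactivator SRC1 peptide in presence of estradiol agonist; inhibitors block coactivator peptide binding and lower the FRET signal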
T4 sequence (Q92731 whole entry): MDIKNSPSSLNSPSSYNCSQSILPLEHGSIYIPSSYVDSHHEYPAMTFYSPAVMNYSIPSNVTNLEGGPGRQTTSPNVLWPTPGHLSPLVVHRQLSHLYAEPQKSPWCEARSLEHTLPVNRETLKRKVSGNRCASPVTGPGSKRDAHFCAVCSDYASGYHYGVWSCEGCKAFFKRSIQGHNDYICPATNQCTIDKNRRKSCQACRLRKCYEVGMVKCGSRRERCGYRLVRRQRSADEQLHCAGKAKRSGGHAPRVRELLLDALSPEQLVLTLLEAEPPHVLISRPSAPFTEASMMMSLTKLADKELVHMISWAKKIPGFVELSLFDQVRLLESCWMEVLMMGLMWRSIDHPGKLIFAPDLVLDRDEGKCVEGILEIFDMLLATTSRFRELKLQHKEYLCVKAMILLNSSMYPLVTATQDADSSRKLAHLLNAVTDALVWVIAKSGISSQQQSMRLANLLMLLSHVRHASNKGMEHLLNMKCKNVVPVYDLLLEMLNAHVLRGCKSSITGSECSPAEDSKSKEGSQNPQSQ

[8] = biological target: T5, Sentrin-specific protease 8 (Homo sapiens, UniProt Q96LD8); assay: SENP8 protease inhibitors, SAR follow-up, biochemical, luminescence (AID 504501); format: functional
T5 sequence (Q96LD8 whole entry): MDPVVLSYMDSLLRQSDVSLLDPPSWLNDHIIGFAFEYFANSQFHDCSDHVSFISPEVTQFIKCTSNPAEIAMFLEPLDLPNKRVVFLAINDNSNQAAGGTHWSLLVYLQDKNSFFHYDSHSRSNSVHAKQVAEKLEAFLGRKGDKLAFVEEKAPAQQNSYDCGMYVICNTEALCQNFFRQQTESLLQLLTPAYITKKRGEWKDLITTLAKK

[9] = biological target: T6, Sentrin-specific protease 7 (Homo sapiens, UniProt Q9BQF6); assay: SENP7 protease inhibitors, SAR follow-up, biochemical, luminescence (AID 504497); format: functional
T6 sequence (Q9BQF6 whole entry): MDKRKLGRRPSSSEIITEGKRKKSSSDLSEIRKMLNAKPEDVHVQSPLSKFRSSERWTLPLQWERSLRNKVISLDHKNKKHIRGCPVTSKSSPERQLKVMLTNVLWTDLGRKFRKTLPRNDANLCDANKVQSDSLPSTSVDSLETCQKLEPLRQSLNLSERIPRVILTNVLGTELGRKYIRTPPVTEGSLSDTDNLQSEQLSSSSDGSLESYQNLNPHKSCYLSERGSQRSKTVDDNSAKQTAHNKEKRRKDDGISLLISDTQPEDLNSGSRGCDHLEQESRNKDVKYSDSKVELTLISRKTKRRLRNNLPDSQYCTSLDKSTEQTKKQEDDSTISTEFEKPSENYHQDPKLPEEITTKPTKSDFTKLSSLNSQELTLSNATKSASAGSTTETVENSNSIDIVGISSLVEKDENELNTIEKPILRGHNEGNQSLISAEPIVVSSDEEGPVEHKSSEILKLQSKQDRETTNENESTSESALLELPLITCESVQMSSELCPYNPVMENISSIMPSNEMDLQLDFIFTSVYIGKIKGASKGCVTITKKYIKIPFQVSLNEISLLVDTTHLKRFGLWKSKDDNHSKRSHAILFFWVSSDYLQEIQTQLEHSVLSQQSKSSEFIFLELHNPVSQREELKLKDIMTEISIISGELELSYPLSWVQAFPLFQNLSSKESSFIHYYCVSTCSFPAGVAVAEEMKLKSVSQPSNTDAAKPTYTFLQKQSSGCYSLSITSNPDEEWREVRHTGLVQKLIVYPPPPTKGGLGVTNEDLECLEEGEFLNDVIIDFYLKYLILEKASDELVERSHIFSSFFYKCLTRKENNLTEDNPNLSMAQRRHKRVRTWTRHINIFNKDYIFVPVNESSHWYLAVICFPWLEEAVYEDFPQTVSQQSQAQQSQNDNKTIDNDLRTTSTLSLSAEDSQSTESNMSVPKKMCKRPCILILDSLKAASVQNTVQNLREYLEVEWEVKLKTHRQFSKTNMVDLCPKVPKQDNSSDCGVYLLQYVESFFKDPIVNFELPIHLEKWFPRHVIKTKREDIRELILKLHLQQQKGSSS

Estrogen receptor beta [10] = biological target: T4, Estrogen receptor beta; assay: ERβ–SRC-3 coactivator interaction inhibitors, confirmation, orthogonal assay, biochemical, ELISA, streptavidin-HRP readout (AID 1060)
[11] = biological target: T7, Sentrin-specific protease 6 (Homo sapiens, UniProt Q9GZR1); assay: SAR Analysis of small molecule inhibitors of Sentrin-specific protease 6 (SENP6) using a Luminescent assay. [Related pubchem assays (depositor defined):AID2582, AID2599]; format: functional
T7 sequence (Q9GZR1 whole entry): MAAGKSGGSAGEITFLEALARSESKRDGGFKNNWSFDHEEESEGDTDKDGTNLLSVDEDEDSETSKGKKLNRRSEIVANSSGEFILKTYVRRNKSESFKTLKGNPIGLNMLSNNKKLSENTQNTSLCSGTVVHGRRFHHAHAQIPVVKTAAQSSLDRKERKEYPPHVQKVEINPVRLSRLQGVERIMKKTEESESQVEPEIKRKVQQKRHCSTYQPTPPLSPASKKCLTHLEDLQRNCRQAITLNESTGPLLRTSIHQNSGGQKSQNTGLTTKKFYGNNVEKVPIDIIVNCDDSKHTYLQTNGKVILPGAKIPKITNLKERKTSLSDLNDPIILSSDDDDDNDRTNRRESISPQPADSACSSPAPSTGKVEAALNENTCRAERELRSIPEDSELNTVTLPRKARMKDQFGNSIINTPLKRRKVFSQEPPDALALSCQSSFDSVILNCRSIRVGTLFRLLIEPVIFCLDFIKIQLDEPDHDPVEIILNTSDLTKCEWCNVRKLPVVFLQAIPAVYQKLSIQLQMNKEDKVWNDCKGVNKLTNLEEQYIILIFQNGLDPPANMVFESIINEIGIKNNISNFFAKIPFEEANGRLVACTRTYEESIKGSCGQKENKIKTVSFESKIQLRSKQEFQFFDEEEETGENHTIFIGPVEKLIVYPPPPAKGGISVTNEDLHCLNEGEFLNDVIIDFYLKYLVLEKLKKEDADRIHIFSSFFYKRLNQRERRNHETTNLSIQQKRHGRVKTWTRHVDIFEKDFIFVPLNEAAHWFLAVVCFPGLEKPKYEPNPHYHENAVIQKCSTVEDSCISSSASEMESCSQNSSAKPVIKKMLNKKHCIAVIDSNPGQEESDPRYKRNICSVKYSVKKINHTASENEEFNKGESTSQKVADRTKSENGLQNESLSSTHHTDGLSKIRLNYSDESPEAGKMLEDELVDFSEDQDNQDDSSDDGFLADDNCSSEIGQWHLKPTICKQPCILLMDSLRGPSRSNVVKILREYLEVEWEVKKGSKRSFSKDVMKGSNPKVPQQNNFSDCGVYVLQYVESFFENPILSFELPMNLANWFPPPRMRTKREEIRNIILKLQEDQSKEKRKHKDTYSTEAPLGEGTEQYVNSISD

Caspase-3 = biological target: T8, Caspase-3 (Homo sapiens, UniProt P42574); assay: SAR Analysis of small molecule inhibitors of Sentrin-specific proteases (SENPs) using a Caspase-3 Selectivity assay. [Related pubchem assays (depositor defined):AID2540, AID2599, AID434973, AID489001]; format: functional
T8 sequence (P42574 whole entry): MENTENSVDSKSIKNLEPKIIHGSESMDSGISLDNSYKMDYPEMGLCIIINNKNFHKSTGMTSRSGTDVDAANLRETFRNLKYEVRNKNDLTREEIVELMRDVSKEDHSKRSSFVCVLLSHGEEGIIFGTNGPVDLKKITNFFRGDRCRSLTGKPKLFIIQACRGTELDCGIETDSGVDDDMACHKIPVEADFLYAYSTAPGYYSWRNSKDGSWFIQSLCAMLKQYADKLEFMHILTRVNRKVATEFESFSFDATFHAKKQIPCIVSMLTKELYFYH

[12] = biological target: T9, Polyadenylate-binding protein 1 (Homo sapiens, UniProt P11940); assay: PABP1 MLLE–PAM2 binding inhibitor potency, dose response, biochemical, fluorescence polarization, FITC-PAM2 peptide (AID 602259); format: functional; conditions: read-out: IC50_Mean
T9 sequence (P11940 whole entry): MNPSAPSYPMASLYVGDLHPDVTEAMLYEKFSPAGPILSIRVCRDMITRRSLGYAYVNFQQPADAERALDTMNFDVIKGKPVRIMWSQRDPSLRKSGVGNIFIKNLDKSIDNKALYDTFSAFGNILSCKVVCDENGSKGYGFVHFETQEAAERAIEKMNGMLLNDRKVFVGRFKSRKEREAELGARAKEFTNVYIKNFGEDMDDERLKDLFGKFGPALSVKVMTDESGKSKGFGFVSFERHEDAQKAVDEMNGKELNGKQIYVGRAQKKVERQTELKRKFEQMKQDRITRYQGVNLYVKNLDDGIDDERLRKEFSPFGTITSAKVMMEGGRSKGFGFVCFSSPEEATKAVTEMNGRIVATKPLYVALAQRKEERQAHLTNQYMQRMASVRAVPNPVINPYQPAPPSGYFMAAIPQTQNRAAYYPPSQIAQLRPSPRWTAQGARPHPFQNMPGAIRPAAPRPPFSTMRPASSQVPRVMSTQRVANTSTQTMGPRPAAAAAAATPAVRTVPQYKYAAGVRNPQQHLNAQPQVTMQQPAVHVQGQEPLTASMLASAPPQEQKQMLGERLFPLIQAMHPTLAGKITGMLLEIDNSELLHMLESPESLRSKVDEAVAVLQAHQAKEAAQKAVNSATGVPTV

[13] = biological target: T9, Polyadenylate-binding protein 1; assay: PABP1 MLLE–PAM2 interaction inhibitors, dose response, miRNA deadenylation inhibitor project, biochemical, fluorescence polarization, Cy5-PAM2 peptide, secondary (AID 602260); format: functional; conditions: read-out: IC50_Mean

O=C(O)CC1SC(N/N=C/c2ccc(-c3ccc(Cl)cc3[N+](=O)[O-])o2)=NC1=O (stereo unspecified)
IC50 [1]: > 50 µM (not active) | EC50 (Protein RecA): 4.61 µM (active) | AC50 [2]: > 380 µM (inactive) | IC50 (Genome polyprotein): 34.8 µM (active)

COc1cc2c(cc1OC)C(Nc1ccc(S(N)(=O)=O)cc1)=NC(C)(C)C2
EC50 [3]: > 79.4 µM (not active) | EC50 [4]: > 79.4 µM (not active) | EC50 [5]: > 79.4 µM (not active)

Cc1ccc(-n2nnnc2Sc2nc([N+](=O)[O-])nn2C)cc1
CC50 [6]: 16.5 µM (active)

CC1CC1C(=O)Nc1nc(-c2cccs2)c(-c2cccs2)s1 (stereo unspecified)
CC50 [6]: > 40 µM (active)

Cc1cc(C(=O)Nc2sc3c(c2C#N)CCC3)no1
IC50 (Estrogen receptor beta [7]): 11.5 µM (active) | IC50 [8]: > 99 µM (inactive) | IC50 [9]: 52.7 µM (active) | IC50 (Estrogen receptor beta [10]): < 0.023 µM (not active) | IC50 [11]: > 99 µM (inactive) | IC50 (Caspase-3): 30.4 µM (active)

O=S(=O)(Nc1cccc(C(F)(F)F)c1)c1cnc[nH]1
EC50 [3]: > 79.4 µM (not active) | EC50 [4]: > 79.4 µM (not active) | EC50 [5]: > 79.4 µM (not active)

COc1cc(-c2nc(S(=O)(=O)c3ccc(C)cc3)c(N3CCOCC3)o2)cc(OC)c1OC
IC50 [12]: > 66 µM (inactive) | CC50 [6]: > 40 µM (active) | IC50 [13]: > 66 µM (inactive)
